Measured values: patent US9226913B2, “Methods of treating cancer using a combination of an immunomodulatory compound and an artemisinin or a derivative thereof” (Celgene Corporation, priority 2010, dated 2016)

Experiments:
PANC1 cells = test: MTT proliferation assay, 72 hr (Example 6.1); format: cell-based, human; conditions: for IC50: Homo sapiens, PANC-1, PANC1 (pancreas), 72 hours treatment, MTT, mean ± SD of at least 3 experiments
Procedure: (§1) The human cancer cell lines; MCF7 (breast), HCT116 and SW480 (colon) (Cancer Research UK, London, UK), KM and MJT3 (melanoma) (in house), PANC1 and MIAPaCa (pancreas) (European Collection of Cell Cultures, Salisbury, UK) were grown in either DMEM (Sigma) or RPMI (Sigma) media supplemented with 10% foetal bovine serum, 2 mM L-glutamine, 1% penicillin/streptomycin.
To study the effect of ATM and ART on cell growth, cells growing exponentially were added to 96-well plates at a density of 3×10^4/well. […] Cell number/proliferation was measured at 72 hr using a standard methylthiazoletetrazolium (MTT)-based assay without modifications. Briefly, MTT (Sigma) was added to each well to give a working concentration of 0.4 mg/ml, and plates returned to the incubator for a further 1 hr. After this time, the medium was aspirated off, 200 μL of DMSO was then added to each well, and plates agitated gently for 5 min before measuring optical density at 540 nm in each well.

MiaPaCa3 cells = test: MTT proliferation assay, 72 hr (Example 6.1); format: cell-based; conditions: Homo sapiens, MiaPaCa3 (pancreas), 72 hours treatment, mean ± SD of at least 3 experiments
Procedure: as §1
(§2) To study the effect of ATM and ART on cell growth, cells growing exponentially were added to 96-well plates at a density of 3×10^4/well. Drugs (0.1-100 μM) were then added to the wells, ensuring an equal volume of 200 μL across the plate. Cell number/proliferation was measured at 72 hr using a standard methylthiazoletetrazolium (MTT)-based assay without modifications. Briefly, MTT (Sigma) was added to each well to give a working concentration of 0.4 mg/ml, and plates returned to the incubator for a further 1 hr. After this time, the medium was aspirated off, 200 μL of DMSO was then added to each well, and plates agitated gently for 5 min before measuring optical density at 540 nm in each well.

KM cells = test: MTT proliferation assay, 72 hr (Example 6.1); format: cell-based; conditions: Homo sapiens, KM (melanoma), 72 hours treatment, mean ± SD of at least 3 experiments
Procedure: as §1, §2

MJT3 cells = test: MTT proliferation assay, 72 hr (Example 6.1); format: cell-based, human; conditions: for IC50: Homo sapiens, MJT3 (melanoma), 72 hours treatment, MTT, mean ± SD of at least 3 experiments
Procedure: as §1, §2

MCF7 cells [1] = test: MTT proliferation assay, 72 hr (Example 6.1); format: cell-based, human; conditions: for IC50: MCF7 (breast), 72 hours treatment, MTT, mean ± SD of at least 3 experiments
Procedure: as §1, §2

SW480 cells [2] = test: MTT proliferation assay, 72 hr (Example 6.1); format: cell-based, human; conditions: for IC50: Homo sapiens, SW480 (colon), 72 hours treatment, MTT, mean ± SD of at least 3 experiments
Procedure: as §1, §2

HCT116 cells [3] = test: MTT proliferation assay, 72 hr (Example 6.1); format: cell-based, human; conditions: for IC50: Homo sapiens, HCT-116, HCT116 (colon), 72 hours treatment, MTT, mean ± SD of at least 3 experiments
Procedure: as §1, §2

MCF7 cells [4] = test: Flow cytometric analysis of the cell cycle (Example 6.1); format: cell-based, human
Procedure: (§3) Cells were cultured with equi-active concentrations (˜IC25) of ART or ATM for 72 hrs, before fixing in 70% (v/v) ethanol in PBS. Following an incubation period of at least 30 mins, cells were washed and re-suspended in a DNA staining solution (1 mg/mL propidium iodide and 1 ng/mL RNAse A (both Sigma). Acquisition of data was performed within 1 h using a Becton Dickinson FACSCalibur (BD Biosciences), and gating was employed to remove doublet artefacts and to discriminate cells from debris. Ten thousand cells were analysed, and the percentages of cells in G1, S and G2/M phases were determined using the cell cycle analysis program WinMDI CellQuest v2.9 (http://facs.scripps.edu/software.html).

SW480 cells [5] = test: as above; format: cell-based, human; conditions: SW480, equi-active (~IC25) concentration, 72 hrs
Procedure: as §3

HCT116 cells [6] = test: as above; format: cell-based, human
Procedure: as §3

pRb = test: Immunoblotting analysis (Example 6.1); format: cell-based, human; conditions: in each cell line (HCT116, SW480, MCF7)
Procedure: (§4) Cells were harvested and total cellular protein was solubilised in lysis buffer (New England Biolabs, Hitchin, UK) and resolved by Tris-glycine electrophoresis using a 4-12% bis-tris gradient-gel according to the method of Laemmli (Laemmli UK. 1970. Nature, 227(5259):680-5). Following transfer of proteins to nitrocellulose membranes (0.45 μm), blocking was performed in 5% (w/v) non-fat milk in TTBS [0.5% (v/v) Tween-20 in TBS (50 mM Tris, 150 mM NaCl, pH 8.0)]. Primary antibody probing was performed with anti-p53, anti-p21, anti-Bax, anti-CDK4, anti-cyclin D1 or anti-pRb. All primary antibodies were obtained from New England Biolabs (Hitchin, UK) and used at a dilution of 1:1,000, unless stated otherwise. Anti-GAPDH was used as a loading control (1:2,000—New England). Following five washing steps in TTBS, horseradish peroxidase-conjugated anti-species IgG1 was used as the secondary antibody (Amersham Biosciences Ltd., Little Chalfont, UK). Bands were visualised by the ECL-plus detection system (Amersham).

Bax [7] = test: Immunoblotting analysis (Example 6.1); format: cell-based, human; conditions: immunoblotting of treated cultures
Procedure: as §4

p21^waf1cip1 = test: Immunoblotting analysis (Example 6.1); format: cell-based, human; conditions: whole cell lysates, ~IC25, 72 hrs
Procedure: as §4

cyclin D1 and CDK 4 = test: Immunoblotting analysis (Example 6.1); format: cell-based, human; conditions: whole cell lysates, equi-active (~IC25) concentrations, 72 hrs
Procedure: as §4

[8] = Nagelschmitz et al., 2008; cited from earlier work
human cancer cell lines = test: Trypan blue dye exclusion in parallel to MTT (Example 6.1); format: cell-based; conditions: in parallel to the MTT assay; data not shown
Plasmodium falciparum = conditions: Haynes 2006; Vivas 2007; Ramharter 2006; cited from earlier work
[9] = tested on: HCT116, SW480 and MCF7 cells; test: Combination with OXP at fixed ratio, nature of interaction (Example 6.1); format: cell-based, human; conditions: combined with OXP, median effect analysis
Text: This combination studies followed an approach previously described (Liu et al. 2008, Leuk Lymphoma, 49(9):1800-9).

HCT116^norm cells = test: MTT proliferation assay, 72 hr (Example 6.2); format: cell-based, human; conditions: Homo sapiens, 72 h, MTT, mean ± SD of at least five experiments, read-out: IC50
Procedure: (§5) The human cancer cell lines; MCF7 (breast), HCT116 (colon) and A549 (lung) (Cancer Research UK, London, UK), were grown in either DMEM (Sigma) or RPMI (Sigma) media supplemented with 10% foetal bovine serum, 2 mM L-glutamine, 1% penicillin/streptomycin.
as §2, with “each agent” for “ATM and ART”, “μl” for “μL”, “number” for “number/proliferation”, “modifications as described previously (Gordi et al., 2004, Toxicol. Lett. 147: 99-107).” for “modifications.”

MCF7 cells [10] = test: MTT proliferation assay, 72 hr (Example 6.2); format: cell-based, human; conditions: Homo sapiens, MCF7, 72 h, mean ± SD of at least five experiments
Procedure: as §5
as §2, with “each agent” for “ATM and ART”, “μl” for “μL”, “number” for “number/proliferation”, “modifications as described previously (Gordi et al., 2004, Toxicol. Lett. 147: 99-107).” for “modifications.”

A549 cells = test: MTT proliferation assay, 72 hr (Example 6.2); format: cell-based, human; conditions: Homo sapiens, A549, 72 h, mean ± SD of at least five experiments
Procedure: as §5
as §2, with “each agent” for “ATM and ART”, “μl” for “μL”, “number” for “number/proliferation”, “modifications as described previously (Gordi et al., 2004, Toxicol. Lett. 147: 99-107).” for “modifications.”

Bax [11] = test: Immunoblotting analysis (Example 6.2); format: cell-based, human
Procedure: (§6) Cells were harvested and total cellular protein was solubilised in lysis buffer (New England Biolabs, Hitchin, UK) and resolved by Tris-glycine electrophoresis using a 4-12% bis-tris gradient-gel. Following transfer of proteins to 0.45 μm nitrocellulose membranes, blocking was performed in 5% (w/v) non-fat milk in TTBS [0.5% (v/v) Tween-20 in TBS (50 mM Tris, 150 mM NaCl, pH 8.0)]. Primary antibody probing was performed with anti-p21, anti-Bax, anti-CDK4, anti-cyclin D1, anti-pRb or anti-cyclin B1. All primary antibodies were obtained from New England Biolabs (Hitchin, UK) and used at a dilution of 1:1,000, unless stated otherwise. Anti-GAPDH was used as a loading control (1:2,000—New England). Following three washing steps in TTBS, horseradish peroxidase-conjugated anti-species IgG was used as the secondary antibody (Amersham Biosciences Ltd., Little Chalfont, UK). Bands were visualised by the ECL-plus detection system (Amersham).

cyclin B = test: Immunoblotting analysis (Example 6.2); format: cell-based, human
Procedure: as §6

HCT116^poly cells = test: MTT proliferation assay, 72 hr (Example 6.2); format: cell-based, human; conditions: Homo sapiens, HCT116^poly (polyploid extended-passage variant)
Procedure: as §2, with “each agent” for “ATM and ART”, “μl” for “μL”, “number” for “number/proliferation”, “modifications as described previously (Gordi et al., 2004, Toxicol. Lett. 147: 99-107).” for “modifications.”

SMILES: C[C@@H]1CC[C@H]2[C@@H](C)C(=O)O[C@@H]3O[C@@]4(C)CC[C@@H]1[C@]32OO4 [Artemisinin, artemisinin]
- IC50 (PANC1 cells): > 1000 µM
- IC50 (MiaPaCa3 cells): 31 ± 13 µM
- IC50 (KM cells): 101 ± 15 µM
- IC50 (MJT3 cells): > 1000 µM
- IC50 (MCF7 cells [1]; Homo sapiens, MCF7, 72 h): 44 ± 15 µM
- IC50 (SW480 cells [2]): 156 ± 38 µM
- IC50 (HCT116 cells [3]): 204 ± 88 µM

SMILES: C[C@H]1[C@H](N2CCS(=O)(=O)CC2)O[C@@H]2O[C@@]3(C)CC[C@H]4[C@H](C)CC[C@@H]1[C@@]24OO3 [Artemisone, artemisone]
- apoptotic/sub-G1 phase of the cell cycle (MCF7 cells [4]; MCF7, equi-active (~IC25) concentration, 72 hrs): no increase
- cell cycle effect (MCF7 cells [4]; MCF7, ~IC25, 72 hrs): G1-selective blockade
- cells in G1 (MCF7 cells [4]; MCF7, ~IC25, 72 hrs, untreated 63±4.40%, p=0.015): 83±5.5%
- apoptotic/sub-G1 phase of the cell cycle (SW480 cells [5]): no increase
- apoptotic/sub-G1 phase of the cell cycle (HCT116 cells [6]; HCT116, equi-active (~IC25) concentration, 72 hrs): no increase
- distribution of cells within the G1, S and G2 phases (HCT116 cells [6]; HCT116, ~IC25, 72 hrs): did not alter the distribution
- levels of pRb (pRb): dramatic reduction
- pro-apoptotic protein Bax (Bax [7]): no increase
- levels of the general CDK inhibitor p21^waf1cip1 (p21^waf1cip1): generally unchanged
- levels of cyclin D1 and its associated CDK 4 (cyclin D1 and CDK 4): significantly reduced
- toxicity [8]: almost negligible toxicity
- cell viability (trypan blue dye exclusion) (human cancer cell lines): did not affect cell viability
- IC50 (PANC1 cells): > 1000 µM
- impact on cell number (PANC1 cells; p53-mutant, resistant PANC1 cell line): neither drug had an impact
- IC50 (MiaPaCa3 cells): 14 ± 10 µM
- IC50 (KM cells): 6.4 ± 2.1 µM
- activity against Plasmodium falciparum compared with other antimalarial drugs (Plasmodium falciparum): significantly more active
- nature of interaction with OXP [9]: additive interaction
- IC50 (MJT3 cells): 30 ± 26 µM
- effect on cell number (MJT3 cells; MJT3 cells, MTT 72 hr): significantly reduced cell number
- IC50 (MCF7 cells [1]; Homo sapiens, MCF7, 72 h): 0.5 µM
- IC50 less for ATM than its precursor ART (MCF7 cells [1]; MCF7): around 80 fold
- IC50 (MCF7 cells [1]): 0.56 ± 0.17 µM
- IC50 (SW480 cells [2]): 4.5 ± 1.6 µM
- susceptibility to ATM relative to ART (SW480 cells [2]; SW480, comparison of IC50): around 30 ×
- susceptibility to ATM relative to ART (HCT116 cells [3]; HCT116, comparison of IC50): around 30 ×
- IC50 (HCT116 cells [3]): 9.5 ± 0.9 µM

SMILES: C[C@H]1[C@H](OC(=O)CCC(=O)O)O[C@@H]2O[C@@]3(C)CC[C@H]4[C@H](C)CC[C@@H]1[C@@]24OO3 [Artesunate, artesunate]
- IC50 (HCT116^norm cells): 1.92 ± 0.35 µM
- IC50 (MCF7 cells [10]): 2.3 ± 0.94 µM
- IC50 (A549 cells): 9.8 ± 1.7 µM
- BAX level (Bax [11]; HCT116^norm cells): no effect
- BAX level (Bax [11]; HCT116^poly cells): decrease
- cyclin B level (cyclin B; HCT116^norm cells): decrease
- cyclin B level (cyclin B; HCT116^poly cells): increase

SMILES: Nc1ccn([C@@H]2O[C@H](CO)[C@@H](O)C2(F)F)c(=O)n1 [Gemcitabine, gemcitabine]
- IC50 (HCT116^poly cells): 15 µM
- IC50 (MCF7 cells [10]): 1.9 ± 0.75 µM
- IC50 (A549 cells): 14 ± 1.6 µM
